# Laboratory results: article PMC6530997, “Asymmetry in catalysis by Thermotoga maritima membrane-bound pyrophosphatase demonstrated by a nonphosphorus allosteric inhibitor” (Science Advances, 2019)
# Where two headings read alike, the source gives them in different places.
# Key:
# [1] = target: PfPPase-VP1 (in membrane) (Plasmodium falciparum, UniProt Q8IKR1); assay: Inhibition of PfPPase-VP1 in isolated membranes; assay type: biochemical
# From the text: (§1) Fig. S6. Effect of ATC on growth of P. falciparum and on PfPPase. (A) Inhibition effect of ATC on PfPPase-VP1 (in membrane) from P. falciparum expressed in insect cell baculovirus expression system (method and further analysis will be described in more detail elsewhere). ATC […]
# (§2) (B) ATC has no anti-plasmodial […]
# (§3) activity up to 100  µM. (C) Anti-plasmodial activity of artemisinin, as a positive control.
# (§4) (1 picture or pasted object on this page, not shown here)
# [2] = test system: PfPPase-VP1 (in membrane); assay: Inhibition of PfPPase-VP1 in isolated membranes; assay type: biochemical; settings: PfPPase IC50 versus TmPPase IC50
# From the text: as §1, §2, §3, §4
# TmPPase [3] = target: T1, TmPPase (Thermotoga maritima, UniProt Q9S5X0); assay: TmPPase activity inhibition, molybdenum blue 96-well plate assay; assay type: biochemical; settings: for IC50: purified TmPPase in DDM, 71°C, 2 min; for activity against TmPPase (in words): SAR discussion; for fold less active / weaker than ATC: IC50 relative to ATC
# T1 construct: His; made in house; host or cells: Saccharomyces cerevisiae strain BJ1991
# T1 sequence (Q9S5X0 whole entry): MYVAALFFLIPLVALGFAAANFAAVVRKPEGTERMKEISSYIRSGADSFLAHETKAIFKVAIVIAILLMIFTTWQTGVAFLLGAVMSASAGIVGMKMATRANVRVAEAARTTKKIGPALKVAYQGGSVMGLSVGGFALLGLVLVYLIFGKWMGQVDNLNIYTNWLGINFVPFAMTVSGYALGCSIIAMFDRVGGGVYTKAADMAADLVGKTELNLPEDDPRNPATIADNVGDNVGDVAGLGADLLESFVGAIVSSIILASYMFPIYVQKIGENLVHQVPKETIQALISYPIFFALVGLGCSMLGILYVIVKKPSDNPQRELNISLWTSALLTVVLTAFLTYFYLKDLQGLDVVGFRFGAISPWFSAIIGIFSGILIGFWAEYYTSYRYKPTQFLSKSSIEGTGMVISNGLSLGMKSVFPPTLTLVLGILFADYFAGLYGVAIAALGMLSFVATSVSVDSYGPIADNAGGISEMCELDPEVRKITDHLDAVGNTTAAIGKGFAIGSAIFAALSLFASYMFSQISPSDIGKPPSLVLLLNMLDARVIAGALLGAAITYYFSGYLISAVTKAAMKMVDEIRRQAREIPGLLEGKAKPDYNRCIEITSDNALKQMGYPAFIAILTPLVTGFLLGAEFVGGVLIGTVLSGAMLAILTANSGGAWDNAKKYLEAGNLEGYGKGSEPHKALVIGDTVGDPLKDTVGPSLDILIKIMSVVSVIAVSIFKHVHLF
# From the text: The screening process that led to the discovery of compound 1 (ATC) will be described in more detail elsewhere. Briefly, we tested compounds using a recently developed 96-well plate assay with TmPPase as a model system ([37]). The screening collections included compounds synthesized in our laboratories. The identification of ATC as an inhibitor was followed by the test of analogs 2 to 5. ATC and its analogs were initially developed for their antimicrobial, antiviral, and anticancer activities, as reported elsewhere ([38]).
# (§5) TmPPase activity, compound screening, and kinetic experiments were done using the molybdenum blue reaction method in a purified protein solubilized in DDM ([37]). Initial reaction rates of TmPPase were determined using PPi as the substrate and ATC as the inhibitor at varying concentrations. The concentration of MgCl2 and Na4PPi required to maintain 5 mM free Mg^2+ at pH 8.0 was approximated as described previously ([41]). The reaction was done in reaction buffer [60 mM tris-HCl (pH 8.0), 5 mM free Mg^2+, 100 mM KCl, and 10 mM NaCl] at 71°C for 2 min. We chose a 2-min reaction time as it still produces a reaction product in a linear range (fig. S7).
# TmPPase [4] = target: T1, TmPPase; assay: Kinetic analysis of ATC inhibition of PPi hydrolysis by TmPPase; assay type: biochemical
# Procedure: As ATC is a potent inhibitor, we further characterized its effect on the rate of substrate (PPi) hydrolysis using a range of ATC concentrations (0.0 to 12.0 μM). We performed the kinetic assay using PPi concentrations from 0 to 1714 μM at 71°C with a single-point measurement at 2 min (Fig. 4D), having shown that this is within the linear range for initial rates (fig. S7).
# The model is a variant on that used by Artukka et al. ([23]) and is required as there is half-of-the-sites reactivity. The sum of squares when fitting the inhibition curves with an ATC monomer (i.e., n = 1 in Fig. 5) is 5268, and the SD of the residuals (Sy.x) is 4.3; when fitting an ATC dimer, the values are 855 and 1.8, respectively. […] This means that ATC binds as a dimer to TmPPase.
# as §5
# For analysis, we used a variant of Artukka and co-workers’ method ([23]), which assumes that the two active sites in an mPPase dimer interact allosterically, with the addition of inhibitor binding to the two active sites (Fig. 5). E2 represents the dimeric enzyme, S is the substrate (Na4PPi), I is the inhibitor (ATC), and n is the number of ATC molecules bound to the enzyme. KS is a microscopic Michaelis-Menten constant, and kp is the per-site maximum rate for the substrate complex. α is the factor relating the binding of the first substrate molecule (KS) to the binding of the second, β is the factor relating the rate of hydrolysis of the E2S complex (kp) to that of the E2S2 complex, and KI1obs, KI2obs, and KI3obs are the observed inhibition constants for binding to the E2, E2S, and E2S2 complexes.
# For the mechanism in Fig. 5 with n = 2 (i.e., only inhibitor dimers bind), the rate Eq. 1 ([42]) is v=(2kp+2βkp[S]/αKs)/2(1+[I]^2/(KI2obs)^2)+(Ks/[S])(1+[I]^2/(KI1obs)^2)+([S]/αKs)(1+[I]^2/(KI3obs)^2) (1) where [S] and [I] correspond to substrate and inhibitor concentrations, respectively, and the equilibrium and Michaelis-type constants are as in Fig. 5. The kinetic data were fit together to obtain all parameter values and their SEs by nonlinear regression as a function of inhibitor (0, 1.0, 2.0, 4.0, 8.0, and 12.0 μM) and substrate (0 to 1714 μM) concentrations using Prism 6.0 (GraphPad Software). Eliminating the KI1 terms had no effect on the overall quality of fit.
# TmPPase [5] = target: T1, TmPPase; assay: as above; assay type: biochemical; settings: PPi conc. 1721
# [6] = test system: Plasmodium falciparum strain 3D7; assay: Anti-plasmodial activity assay (SYBR Green I, 72 h); assay type: cell-based
# Procedure: Size-exclusion chromatography – Multi angle laser light scattering (SEC-MALLS) 50  µg of TmPPase purified in DDM with IDP (1 mM) and IDP+ATC (1 mM each) were run through a Superdex 200 10/300 GL equilibrated with a buffer containing 50 mM MES-NaOH pH 6.5, 50 mM KCl, 5 mM MgCl2, 2 mM DTT and 0.05% DDM using a HPLC-system (Shimadzu).
# The eluted samples from the column were analysed using UV-absorbance, refractive index (Optilab rEX, Wyatt) and multi angle laser light scattering (miniDAWN TREOS, Wyatt) detectors and the enzyme molecular mass was calculated using ASTRA software (Wyatt).
# Anti-plasmodial activity assay
# For the in vitro anti-plasmodial activity assay, Plasmodium falciparum strain 3D7 was maintained in culture as described previously (56). Briefly, parasites were cultured in O+ human erythrocytes at 5% haematocrit in RPMI-1640 medium supplemented with 0.5% Albumax II (Gibco, Carlsbad, CA, USA), 200 μM hypoxanthine (Sigma, St. Louis, MO, USA) and 20 μg ml-1 gentamycin (Gibco). […]
# Fifty microliters of each dilution were mixed in a 96-well plate with 150 µl of 2% haematocrit of 0.5% parasitemia (ring stage). After 72 h incubation at 37 °C, the parasite growth was quantified using fluorescent SYBR Green I®-based assay as described (58). The half-maximal inhibitory concentration (IC50) of the test compound was assessed by non-linear regression in Prism 7 (GraphPad Software). […]
# [7] = PfPPase-VP1 expressed in insect cell baculovirus system
# Chain of PfPPase-VP1 (in membrane) (Plasmodium falciparum, UniProt Q8IKR1) (Q8IKR1 entry or part of it): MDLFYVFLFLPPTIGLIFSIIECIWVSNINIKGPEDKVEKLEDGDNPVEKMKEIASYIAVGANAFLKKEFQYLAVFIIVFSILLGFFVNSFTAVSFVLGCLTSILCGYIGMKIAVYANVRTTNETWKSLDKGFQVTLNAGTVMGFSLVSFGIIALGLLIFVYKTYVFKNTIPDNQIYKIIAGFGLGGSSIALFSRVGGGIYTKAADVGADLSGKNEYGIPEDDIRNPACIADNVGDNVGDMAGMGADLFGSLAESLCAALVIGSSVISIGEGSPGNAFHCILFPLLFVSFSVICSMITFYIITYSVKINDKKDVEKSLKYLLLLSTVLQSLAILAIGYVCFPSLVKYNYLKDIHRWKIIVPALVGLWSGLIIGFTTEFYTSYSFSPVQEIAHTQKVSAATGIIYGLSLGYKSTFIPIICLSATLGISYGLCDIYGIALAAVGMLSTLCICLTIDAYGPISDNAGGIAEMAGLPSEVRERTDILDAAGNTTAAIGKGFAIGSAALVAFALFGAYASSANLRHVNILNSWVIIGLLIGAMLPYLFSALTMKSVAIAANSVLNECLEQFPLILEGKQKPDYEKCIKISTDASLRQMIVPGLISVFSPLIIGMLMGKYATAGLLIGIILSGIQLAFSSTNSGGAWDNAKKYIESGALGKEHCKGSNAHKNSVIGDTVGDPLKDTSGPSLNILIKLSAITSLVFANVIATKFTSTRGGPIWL
smiles,measurement,setting,value
"Nc1nc2ccc(CNC(=O)c3cc4ccccc4[nH]3)cc2s1 [ATC, N-[(2-amino-6-benzothiazolyl)methyl]-1H-indole-2-carboxamide]",IC50,[1]; [7],83.6 µM
same,logIC50,[1]; [7],1.9
same,IC50,"[1]; isolated P. falciparum membranes, preliminary studies",~80 µM
same,fold lower than in T. maritima test system,[2],at least 40 fold
same,IC50,TmPPase [3],1.7 µM
same,mode of inhibition,TmPPase [4],uncompetitive dimeric inhibitor
same,fold weaker binding to E2S2 than to E2S,TmPPase [4]; KI3obs versus KI2obs,about 2.5 fold
same,Hill constant,TmPPase [4]; PPi conc. 35,2.8
same,Hill constant,TmPPase [4]; PPi conc. 71,2.8
same,Hill constant,TmPPase [4]; PPi conc. 142,1.9
same,Hill constant,TmPPase [4]; PPi conc. 1071,2.2
same,Hill constant,TmPPase [4]; PPi conc. 1428,1.9
same,Hill constant,TmPPase [4]; PPi conc. not printed (line between 142 and 1071),2.2
same,Ki,"TmPPase [4]; binding to E2 (no substrate), data not shown, read-out: KI1 (mean value when included in the fit)",≥ 250 µM
same,binding to E2 (in words),TmPPase [4]; enzyme without substrate,does not bind to E2 at concentrations we are able to achieve
same,Ki,"TmPPase [4]; observed inhibition constant for binding to the E2S2 complex, n = 2 (ATC dimer), read-out: KI3obs",3.18 ± 0.15 µM
same,Ki,"TmPPase [4]; observed inhibition constant for binding to the E2S complex, n = 2 (ATC dimer), read-out: KI2obs",1.37 ± 0.09 µM
same,Hill coefficient for ATC binding,TmPPase [4]; substrate concentrations greater than 100 μM,2
same,Hill coefficient,TmPPase [4]; very low substrate concentrations (below 100 μM),3
same,Hill constant,TmPPase [5],2.0
same,anti-plasmodial activity (in words),[6]; P. falciparum survival assays,did not show any anti-plasmodial activity
same,IC50,"[6]; Plasmodium falciparum, P. falciparum 3D7, 72 h, read-out: anti-plasmodial activity, highest concentration without activity",> 100 µM
Nc1nc2ccc(CNC(=O)c3ccccc3)cc2s1 [compound 2],activity against TmPPase (in words),TmPPase [3],inactive
same,IC50,TmPPase [3],> 500 µM
Nc1nc2ccc(CNC(=O)c3cccs3)cc2s1 [compound 3],activity against TmPPase (in words),TmPPase [3],inactive
same,IC50,TmPPase [3],> 500 µM
Nc1nc2ccc(CNC(=O)c3ccco3)cc2s1 [compound 4],fold less active / weaker than ATC,TmPPase [3],approximately 10 fold
Nc1nc2ccc(CNC(=O)c3ccc[nH]3)cc2s1 [compound 5],fold less active / weaker than ATC,TmPPase [3],approximately 10 fold
Nc1nc2ccc(CNC(=O)c3cc4cccc(Br)c4[nH]3)cc2s1 [compound 6],IC50,TmPPase [3],21.4 µM
Nc1nc2ccc(CNC(=O)c3nc4ccccc4[nH]3)cc2s1 [compound 9],activity against TmPPase (in words),TmPPase [3],fully inactive
same,IC50,TmPPase [3],> 500 µM
